Data as given in patent publication US9837621B2, “Compound, light-emitting element, light-emitting device, electronic device, and lighting device” (Semiconductor Energy Laboratory Co., Ltd., priority 2014, dated 2017).

Key:
[1] = physchem; type: physicochemical; settings: organic solvent or mixture, thermodynamic from solid
From the text: The compounds which are embodiments of the present invention and used in this example were 2mFDBtPDBq (sample 1) and 2mDBTBPDBq-VIII (sample 2). For the methods for synthesizing the compounds, Synthesis Examples 1 and 2 can be referred to. As comparative compounds, 2-[3′-(dibenzothiophen-4-yl)biphenyl-3-yl]dibenzo[f,h]quinoxaline (abbreviation: 2mDBTBPDBq-II) (comparative sample 3) and 2-[3-(dibenzothiophen-4-yl)phenyl]dibenzo[f,h]quinoxaline (abbreviation: 2mDBTPDBq-II) (comparative sample 4) were used in this example. The purity of each compound was 99.9%. The chemical formulae of the compounds are shown below.
The solvents used in this example were the four kinds of solvents: toluene, chloroform, ethyl acetate, and acetone.
A method for examining the solubility of the compound of each sample is described. First, 10 mg of the compound was put into a small bottle and to this was added 1 mL of a solvent. Then, whether the compound was dissolved at room temperature or not was checked. When the compound was not dissolved at room temperature, ultrasonic wave irradiation and then heating using a dryer were performed, so that whether the compound was dissolved or not was checked.
When the compound was not dissolved after heating, the volume of the solvent was increased to 10 mL, so that whether the compound was dissolved at room temperature or not was checked. […]

[2] = Thermogravimetry-differential thermal analysis (TG-DTA), 5% weight loss temperature; type: physicochemical; settings: nitrogen stream 200 mL/min, normal pressure, temperature rising rate 10° C./min
Method: Thermogravimetry-differential thermal analysis (TG-DTA) was performed on 2mFDBtPDBq. The measurement was conducted by using a high vacuum differential type differential thermal balance (TG/DTA 2410SA, manufactured by Bruker AXS K.K.). The measurement was conducted under a nitrogen stream (flow rate: 200 mL/min) at normal pressure at a temperature rising rate of 10° C./min. It was found from the relationship between weight and temperature (thermogravimetry) that the 5% weight loss temperature of 2mFDBtPDBq was 495° C.
TG-DTA was performed on 2mDBtBPDBq-VIII. The conditions of the measurement were similar to those in Example 1. It was found from thermogravimetry that the 5% weight loss temperature of 2mDBtBPDBq-VIII was 500° C. or higher.

In the case of `CC1(C)c2ccccc2-c2ccc(-c3cccc4c3sc3c(-c5cccc(-c6cccc(-c7cnc8c9ccccc9c9ccccc9c8n7)c6)c5)cccc34)cc21` [2mDBtBPDBq-VIII, 2-(3-{3-[6-(9,9-dimethylfluoren-2-yl)dibenzothiophen-4-yl]phenyl}phenyl)dibenzo[f,h]quinoxaline], the solubility [1] was greater than 10000 µg/mL and the “5% weight loss temperature” value [2] was no less than 500 °C.

In the case of `CC1(C)c2ccccc2-c2ccc(-c3cccc4c3sc3c(-c5cccc(-c6cnc7c8ccccc8c8ccccc8c7n6)c5)cccc34)cc21` [2mFDBtPDBq, 2-{3-[6-(9,9-dimethylfluoren-2-yl)dibenzothiophen-4-yl]phenyl}dibenzo[f,h]quinoxaline], the solubility [1] was greater than 10000 µg/mL and the “5% weight loss temperature” value [2] was 495 °C.
